A short description of data set [1]: Inhibition of baker's yeast alpha-glucosidase type-1 using p-nitrophenyl-alpha-D-glucopyranoside as substrate preincubated for 30 mins followed by substrate addition measured after 20 mins by microplate reader analysis. Further details: species or system Saccharomyces cerevisiae; call rule not given here.
Data set [2] concerns the target T1, Sucrase-isomaltase, intestinal (Rattus norvegicus, UniProt P23739). In words: Inhibition of rat intestinal Sucrase using sucrose as substrate assessed as glucose release after 40 mins by glucose oxidase method.
Data set [3] in a line: Antioxidant activity assessed as DPPH radical scavenging activity incubated for 30 mins in dark condition by spectrophotometric analysis. Format: physicochemical. Conditions: 0.5 h.
Data set [4] addresses T1, Sucrase-isomaltase, intestinal. In words: Competitive inhibition of rat intestinal Sucrase using sucrose as substrate assessed as glucose release after 40 mins by Lineweaver-Burk plot analysis.
The target is the same in data set [5]. In words: Non-competitive inhibition of rat intestinal Sucrase using sucrose as substrate assessed as glucose release after 40 mins by Lineweaver-Burk plot analysis.

T1 sequence (P23739 1-1013 limits assumed): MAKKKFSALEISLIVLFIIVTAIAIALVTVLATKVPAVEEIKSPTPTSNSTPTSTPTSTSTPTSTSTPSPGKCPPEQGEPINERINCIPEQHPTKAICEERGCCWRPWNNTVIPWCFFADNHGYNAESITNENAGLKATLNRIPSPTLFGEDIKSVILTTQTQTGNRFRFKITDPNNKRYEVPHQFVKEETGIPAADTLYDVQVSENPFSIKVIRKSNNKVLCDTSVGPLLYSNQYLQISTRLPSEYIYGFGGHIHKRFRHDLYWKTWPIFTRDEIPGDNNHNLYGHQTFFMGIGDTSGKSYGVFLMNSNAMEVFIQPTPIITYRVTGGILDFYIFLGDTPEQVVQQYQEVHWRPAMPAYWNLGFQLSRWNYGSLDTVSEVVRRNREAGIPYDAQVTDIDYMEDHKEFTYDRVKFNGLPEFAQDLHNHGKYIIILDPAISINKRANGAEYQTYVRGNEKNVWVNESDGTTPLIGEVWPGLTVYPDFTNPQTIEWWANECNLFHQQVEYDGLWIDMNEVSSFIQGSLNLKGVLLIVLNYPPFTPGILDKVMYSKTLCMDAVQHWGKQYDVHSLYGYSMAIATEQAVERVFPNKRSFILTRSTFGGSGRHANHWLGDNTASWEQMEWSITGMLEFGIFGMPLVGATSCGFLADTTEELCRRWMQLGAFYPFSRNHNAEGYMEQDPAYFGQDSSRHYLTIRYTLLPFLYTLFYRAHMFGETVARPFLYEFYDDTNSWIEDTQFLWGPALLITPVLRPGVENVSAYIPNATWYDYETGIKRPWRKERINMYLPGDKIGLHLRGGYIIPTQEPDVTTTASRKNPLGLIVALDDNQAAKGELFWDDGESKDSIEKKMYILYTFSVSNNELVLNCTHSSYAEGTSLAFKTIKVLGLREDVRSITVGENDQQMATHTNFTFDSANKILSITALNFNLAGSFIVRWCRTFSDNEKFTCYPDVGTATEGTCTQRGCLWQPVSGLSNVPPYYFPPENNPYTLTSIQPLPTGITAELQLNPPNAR
T1 sequence (P23739 1014-1841 limits assumed): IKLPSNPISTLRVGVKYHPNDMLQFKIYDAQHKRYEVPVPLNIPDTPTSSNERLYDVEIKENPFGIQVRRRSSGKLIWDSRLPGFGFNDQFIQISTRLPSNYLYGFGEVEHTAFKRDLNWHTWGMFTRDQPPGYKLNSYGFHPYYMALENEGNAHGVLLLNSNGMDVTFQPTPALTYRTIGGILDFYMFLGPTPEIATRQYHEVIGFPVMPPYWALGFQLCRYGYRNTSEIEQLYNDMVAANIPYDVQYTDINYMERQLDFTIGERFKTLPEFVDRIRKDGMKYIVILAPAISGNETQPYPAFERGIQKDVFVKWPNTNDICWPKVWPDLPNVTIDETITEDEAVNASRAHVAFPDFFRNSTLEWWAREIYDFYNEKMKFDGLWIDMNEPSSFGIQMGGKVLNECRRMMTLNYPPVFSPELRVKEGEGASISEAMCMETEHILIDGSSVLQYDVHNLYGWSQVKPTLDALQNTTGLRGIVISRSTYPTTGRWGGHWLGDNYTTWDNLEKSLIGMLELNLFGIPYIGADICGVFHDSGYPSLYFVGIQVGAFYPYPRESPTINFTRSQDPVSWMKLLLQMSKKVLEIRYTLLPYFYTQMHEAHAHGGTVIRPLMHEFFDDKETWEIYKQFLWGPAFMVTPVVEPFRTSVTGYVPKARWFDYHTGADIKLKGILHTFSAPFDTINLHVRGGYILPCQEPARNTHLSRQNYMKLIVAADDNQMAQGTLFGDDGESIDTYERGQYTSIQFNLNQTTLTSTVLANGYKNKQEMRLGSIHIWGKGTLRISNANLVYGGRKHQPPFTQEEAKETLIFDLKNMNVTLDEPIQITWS

Consider `O=C(CCCCCCC[C@H](O)c1ccccc1)c1c(O)cc(O)cc1O`, for which the results for the half-inhibitory concentration (IC50) in data set [1] (read-out: IC50) and in data set [2] (read-out: IC50) were 22.6 µM and 94.9 µM, respectively. For the same compound, the SC50 in data set [3] is given as 1.6 mM. Moreover, the Ki in data set [4] worked out at 1090 µM; in data set [5], 540 µM.

On to `O=C(CCCCCCC[C@H](O)c1ccccc1)c1c(O)cc(O)c(C(CCc2ccccc2)c2ccc(O)cc2O)c1O` (stereo partly drawn), for which the results for the IC50 in data set [1] (read-out: IC50) and in data set [2] (read-out: IC50) were 5.65 µM and 47.4 µM, respectively. Further, the SC50 in data set [3] was determined as 0.43 mM. Moreover, the Ki in data set [4] came to 3070 µM; in data set [5] it was 380 µM.

Turning to `O=C1C[C@@H](c2ccccc2)Oc2c1c(O)cc(O)c2[C@@H]1O[C@H](CO)[C@@H](O)[C@H](O)[C@H]1O`, the figures for the IC50 in data set [1] (read-out: IC50) and in data set [2] were 529 µM and “Not Active”, respectively. Besides, the SC50 in data set [3] came to 6.76 mM.

For `C[C@H]1O[C@H](O[C@H]2[C@H](O)[C@@H](O)[C@@H](O[C@H]3[C@H](O)[C@@H](O)C(O)O[C@@H]3CO)O[C@@H]2CO)[C@H](O)[C@@H](O)[C@@H]1N[C@H]1C=C(CO)[C@@H](O)[C@H](O)[C@H]1O` (stereo partly drawn) [ACARBOSE], the half-maximal inhibitory concentration (IC50) in data set [1] (read-out: IC50) is 103 µM. In addition, the SC50 entry in data set [3] is reported as “Not Active”.

`O=C1O[C@H]([C@@H](O)CO)C(O)=C1O` [ASCORBIC ACID]: the IC50 entry in data set [1] and in data set [2] was “Not Active” each time. Also, the SC50 in data set [3] came to 2.45 mM.

What is called IC50 is the concentration at which inhibition is half-maximal. The Ki is a dissociation constant, usually derived from enzyme kinetics or from competition with a known ligand.

The record behind these values is ChEMBL document CHEMBL3621193, “New arylalkanones from Horsfieldia macrobotrys, effective antidiabetic agents concomitantly inhibiting α-glucosidase and free radicals” (Bioorg Med Chem Lett, 2015).
